Source: ChEMBL document CHEMBL5543174, “A Nonbactericidal Anionic Antimicrobial Peptide Provides Prophylactic and Therapeutic Efficacies against Bacterial Infections in Mice by Immunomodulatory-Antithrombotic Duality” (J Med Chem, 2024)
Calls of active or inactive are those of the source. The rule behind the calls is not given here.

Legend:
[1] = system: Peritoneal macrophage cell; assay: Induction of chemotaxis in mouse Peritoneal macrophage assessed as increase in macrophage migration at 100 ug/ml preincubated with MTS510 for 30 mins followed by compound addition measured after 8 hrs by crystal violet staining based indirect transwell assay; format: functional, cell-based; conditions: dose 100.0 µg/ml
[2] = system: Escherichia coli; assay: Antibacterial activity against Escherichia coli ATCC 25922 infected in C57BL/6 mouse assessed as reduction in bacterial load at 10 mg/kg,ip pre-administrated 5 hrs before bacterial infection; format: functional, organism-based
[3] = system: Mus musculus; assay: Anticoagulation activity in mouse infected with Methicillin-resistant Staphylococcus aureus assessed as increase in plasma TFPI expression at 10 mg/kg,ip administrated 5 hrs after bacterial infection measured after 24 hrs by ELISA; format: functional, organism-based; conditions: time 19.0 hrs
[4] = system: Peritoneal macrophage cell; assay: Induction of chemotaxis in mouse Peritoneal macrophage assessed as upregulation of CXCL2 expression incubated for 6 hrs by ELISA; format: functional, cell-based
[5] = system: Escherichia coli; assay: Antibacterial activity against Escherichia coli ATCC 25922 infected in C57BL/6 mouse assessed as reduction in IL-6 level in peritoneal fluid at 10 mg/kg,ip administrated 5 hrs after bacterial infection measured after 24 hrs by ELISA; format: functional, organism-based; conditions: time 19.0 hrs
[6] = system: Peritoneal macrophage; assay: Immunoregulatory activity in mouse Peritoneal macrophage assessed as change in total JNK expression at 25 to 100 ug/ml incubated for 1 hr by Western blotting analysis; format: functional, cell-based; conditions: dose 25-100 µg/ml
[7] = system: Peritoneal macrophage; assay: Induction of chemotaxis in mouse Peritoneal macrophage assessed as upregulation of CXCL2 gene expression incubated for 6 hrs by qPCR analysis; format: functional, cell-based
[8] = system: Staphylococcus aureus; assay: Antibacterial activity against Staphylococcus aureus ATCC 25923 infected in C57BL/6 mouse assessed as reduction in IL-6 level in serum at 10 mg/kg,ip administrated 5 hrs after bacterial infection measured after 24 hrs by ELISA; format: functional, organism-based; conditions: time 19.0 hrs
[9] = system: Staphylococcus aureus; assay: Antibacterial activity against Methicillin-resistant Staphylococcus aureus infected in C57BL/6 mouse assessed as reduction in IL-6 level in peritoneal fluid at 10 mg/kg,ip pre-administrated 5 hrs before bacterial infection measured after 24 hrs by ELISA; format: functional, organism-based; conditions: time 29.0 hrs
[10] = system: Escherichia coli; assay: Antibacterial activity against Carbapenem-resistant Escherichia coli infected in C57BL/6 mouse assessed as reduction in TNF-alpha level in serum at 10 mg/kg,ip pre-administrated 5 hrs before bacterial infection measured after 24 hrs by ELISA; format: functional, organism-based; conditions: time 29.0 hrs
[11] = system: Neutrophil; assay: Induction of phagocytosis in mouse bone marrow derived neutrophil cultured with CFSE-labeled Methicillin-resistant Staphylococcus aureus incubated for 1.5 hrs followed by bacterial exposure for 1 hr by flow cytometry; format: functional, cell-based; conditions: time 2.5 hrs
[12] = system: Staphylococcus aureus; assay: Antibacterial activity against Staphylococcus aureus ATCC 25923 infected in C57BL/6 mouse assessed as reduction in IL-6 level in peritoneal fluid at 10 mg/kg,ip administrated 5 hrs after bacterial infection measured after 24 hrs by ELISA; format: functional, organism-based; conditions: time 19.0 hrs
[13] = system: Staphylococcus aureus; assay: Antibacterial activity against Staphylococcus aureus ATCC 25923 infected in C57BL/6 mouse assessed as reduction in TNF-alpha level in peritoneal fluid at 10 mg/kg,ip pre-administrated 5 hrs before bacterial infection measured after 24 hrs by ELISA; format: functional, organism-based; conditions: time 29.0 hrs
[14] = system: Mus musculus; assay: Immunomodulatory activity in clodronate liposome immunosuppressed C57BL/6 mouse with neutrophil depletion model assessed as change in T-lymphocytes in peritoneal lavage at 10 mg/kg,ip administration measured after 5 to 24 hrs by flow cytometry; format: functional, organism-based; conditions: time 5-24 hrs
[15] = system: Neutrophil; assay: Induction of chemotaxis in mouse bone marrow derived neutrophil assessed as increase in neutrophil migration at 100 ug/ml preincubated with MTS510 for 30 mins followed by compound addition measured after 8 hrs by crystal violet staining based indirect transwell assay; format: functional, cell-based; conditions: dose 100.0 µg/ml
[16] = system: Escherichia coli; assay: Antibacterial activity against Carbapenem-resistant Escherichia coli infected in C57BL/6 mouse with cyclophosphamide-induced neutrophil depletion model assessed as decrease in bacterial burden in peritoneal cavity at 10 mg/kg,ip pre-administrated 5 hrs before bacterial infection measured after 24 hrs; format: functional, organism-based; conditions: time 29.0 hrs
[17] = system: Peritoneal macrophage cell; assay: Induction of chemotaxis in mouse Peritoneal macrophage assessed as upregulation of CXCL2 production at 100 ug/ml preincubated with WRW4 followed by compound addition by ELISA; format: functional, cell-based; conditions: dose 100.0 µg/ml
[18] = system: Staphylococcus aureus; assay: (§1) Antibacterial activity against Methicillin-resistant Staphylococcus aureus infected in C57BL/6 mouse with clodronate liposome-induced monocyte depletion model assessed as reduction of bacterial burden in peritoneal cavity at 10 mg/kg,ip pre-administrated 5 hrs before bacterial infection measured after 24 hrs; format: functional, organism-based; conditions: time 29.0 hrs
[19] = system: Staphylococcus aureus; assay: as §1, with “cyclophosphamide-induced neutrophil” for “clodronate liposome-induced monocyte”, “administrated” for “pre-administrated”, “after” for “before”; format: functional, organism-based; conditions: time 19.0 hrs
[20] = system: Alcaligenes faecalis; assay: Antimicrobial activity against Alcaligenes faecalis ATCC 8750 assessed as inhibition of microbial growth at <= 200 ug/ml incubated for 18 hrs by micro-broth dilution method; format: functional, organism-based; conditions: dose <= 200.0 µg/ml
[21] = system: Mus musculus; assay: Anticoagulation activity in mouse assessed as change in plasma APC expression at 10 mg/kg,ip measured after 24 hrs by ELISA; format: functional, organism-based
[22] = system: Peritoneal macrophage; assay: Induction of chemotaxis in mouse Peritoneal macrophage assessed as upregulation of MCP-1 production at 100 ug/ml preincubated with MTS510 followed by compound addition by ELISA; format: functional, cell-based; conditions: dose 100.0 µg/ml
[23] = system: Escherichia coli; assay: Antibacterial activity against Escherichia coli ATCC 25922 infected in C57BL/6 mouse assessed as reduction in TNF-alpha level in serum at 10 mg/kg,ip administrated 5 hrs after bacterial infection measured after 24 hrs by ELISA; format: functional, organism-based; conditions: time 19.0 hrs
[24] = system: Escherichia coli; assay: Antibacterial activity against Escherichia coli ATCC 25922 infected in C57BL/6 mouse assessed as reduction in IL-1beta level in peritoneal fluid at 10 mg/kg,ip pre-administrated 5 hrs before bacterial infection measured after 24 hrs by ELISA; format: functional, organism-based; conditions: time 29.0 hrs
[25] = system: Peritoneal macrophage; assay: Immunomodulatory activity in mouse Peritoneal macrophage assessed as decrease in LTA-induced IL-6 production at 25 to 100 ug/ml incubated for 6 hrs by ELISA; format: functional, cell-based; conditions: dose 25-100 µg/ml
[26] = system: Peritoneal macrophage; assay: Induction of chemotaxis in mouse Peritoneal macrophage assessed as upregulation of MCP-1 expression incubated for 6 hrs by ELISA; format: functional, cell-based
[27] = system: Mus musculus; assay: Antithrombotic activity in C57BL/6 mouse tail transection model assessed as increase in tail bleeding time at 30 mg/kg,SC administration; format: functional, organism-based
[28] = system: Escherichia coli; assay: Antibacterial activity against Carbapenem-resistant Escherichia coli infected in C57BL/6 mouse assessed as reduction in inflammatory injury in lung at 10 mg/kg,ip pre-administrated 5 hrs before bacterial infection measured after 24 hrs by hematoxylin and eosin staining based analysis; format: functional, organism-based; conditions: time 29.0 hrs
[29] = system: Staphylococcus aureus; assay: Antibacterial activity against Methicillin-resistant Staphylococcus aureus infected in C57BL/6 mouse assessed as reduction in IL-1beta level in peritoneal fluid at 10 mg/kg,ip pre-administrated 5 hrs before bacterial infection measured after 24 hrs by ELISA; format: functional, organism-based; conditions: time 29.0 hrs
[30] = system: Staphylococcus haemolyticus; assay: Antimicrobial activity against Staphylococcus haemolyticus ATCC 29970 assessed as inhibition of microbial growth at <= 200 ug/ml incubated for 18 hrs by micro-broth dilution method; format: functional, organism-based; conditions: dose <= 200.0 µg/ml
[31] = system: Escherichia coli; assay: Antibacterial activity against Carbapenem-resistant Escherichia coli infected in C57BL/6 mouse assessed as reduction in IL-1beta level in serum at 10 mg/kg,ip pre-administrated 5 hrs before bacterial infection measured after 24 hrs by ELISA; format: functional, organism-based; conditions: time 29.0 hrs
[32] = system: Staphylococcus aureus; assay: Antibacterial activity against Staphylococcus aureus ATCC 25923 infected in C57BL/6 mouse assessed as reduction in bacterial load at 10 mg/kg,ip administrated 5 hrs after bacterial infection; format: functional, organism-based

CC[C@H](C)[C@H](NC(=O)[C@@H]1CSSC[C@H](NC(=O)[C@H](CCC(=O)O)NC(=O)[C@@H](NC(=O)[C@H](CCCCN)NC(=O)[C@H](Cc2c[nH]cn2)NC(=O)[C@@H](NC(=O)[C@H](CCCCN)NC(=O)[C@H](CCC(=O)O)NC(=O)[C@H](C)NC(=O)[C@H](CCC(=O)O)NC(=O)[C@H](CCC(=O)O)NC(=O)[C@H](CCC(=O)O)NC(=O)[C@H](C)N)[C@@H](C)O)[C@@H](C)O)C(=O)N[C@@H](CC(C)C)C(=O)N[C@@H](CCC(=O)O)C(=O)N1)C(=O)N[C@@H](Cc1ccccc1)C(=O)N[C@H](C(=O)N[C@@H](CC(C)C)C(=O)N[C@@H](CC(C)C)C(=O)N1CCC[C@H]1C(=O)N1CCC[C@@H]1C(=O)N[C@H](C)C(=O)O)[C@@H](C)O
Activity [1]: Active | Activity [2]: Active | Activity [3]: Active | Activity [4]: Dose-Dependent Effect | Activity [5]: Active | Activity [6]: inactive | Activity [7]: Dose-Dependent Effect | Activity [8]: Active | Activity [9]: Active | Activity [10]: Active | Activity [11]: Dose-Dependent Effect | Activity [12]: Active | Activity [13]: Active | Activity [14]: inactive | Activity [15]: Active | Activity [16]: inactive | Activity [17]: Active | Activity [18]: inactive | Activity [19]: inactive | Activity [20]: inactive | Activity [21]: inactive | Activity [22]: Active | Activity [23]: Active | Activity [24]: Active | Activity [25]: inactive | Activity [26]: Dose-Dependent Effect | Activity [27]: inactive | Activity [28]: Active | Activity [29]: Active | Activity [30]: inactive | Activity [31]: Active | Activity [32]: Active
